pIC50: −log10 of the molar value. Several values for one entry are separate records, joined by “and”; a condition that tells them apart may be missing. Identical values can stand only once. Like-named read-outs stand apart in the source and are kept apart here.

Series [1] concerns HCT-116 colon cancer cell line. The series can be described thus: MTS cell toxicity assay, HCT-116. It is filed as cell-based. The settings on record: Homo sapiens. On the procedure:
(§1) HCT-116 colon cancer cell line, OVCAR-3 ovarian cancer cell line, U87MG glioma cell line and MDA-MB-435 breast cancer cell line were all obtained from American Type Culture Collect (ATCC) and cultured in the recommended conditions. […] After incubation for 72 hours, relative cell viability was measured by standard MTS assay using a CellTiter 96 kit (promega). For NGO-PEG toxicity test, cell medium containing NGO-PEG was changed to fresh medium at 72 h before cell viability test to avoid the dark color of NGO-PEG at high concentrations, which interferes the absorbance reading in MTS assay.
On the technique in general: Tetrazolium dyes change colour on reduction, which living cells bring about.

Series [2] deals with U87MG glioma cell line. Put plainly: MTS cell toxicity assay, U87MG. It is filed as cell-based. The settings on record: Homo sapiens, U-87 MG, 72 h drug incubation. As for the experimental part: as §1
Series [3] deals with OVCAR-3 ovarian cancer cell line. Put plainly: MTS cell toxicity assay, OVCAR-3. Format: cell-based. The settings on record: Homo sapiens, 72 h drug incubation. As for the experimental part: as §1
Series [4] concerns MDA-MB-435 breast cancer cell line. The series can be described thus: MTS cell toxicity assay, MDA-MB-435. It is filed as cell-based. The following applies: Homo sapiens, MDA-MD-435 (breast), 72 h drug incubation. On the procedure: as §1
Series [5] is described as follows: Water solubility of NGO-PEG-SN38. Format: physicochemical. The settings on record: in terms of SN38. From the text:
The existence of aromatic conjugated domains on GO has been shown by NMR previously (Lerf, A.; He, H. Y.; Forster, M.; Klinowski, J., J. Phys. Chem. B, 1998, 102, 4477-4482).

The nature of series [6]: Absorbance of free doxorubicin on heating. It is filed as physicochemical. The following applies: after 24 hours. On the procedure: The diameter distributions of two types of SWNTs were obtained by AFM topographic height measurements of ˜100 PL-PEG functionalized nanotubes in each material, after depositing them on Si substrates from solutions (FIG. 12). Both Laser PL-SWNT-DOX and Hipco PL-SWNT-DOX (DOX loaded at pH=9) were incubated in PBS and kept at various temperatures (20° C., 40° C., 60° C., 80° C.). Released doxorubicin was removed at different time points and the retained doxorubicin was measured by UV-VIS-NIR to get temperature dependent releasing curves (FIGS. 13A and 13B). […] This was corrected in obtaining our release curves. The half-lives (t1/2) of doxorubicin on PEGylated SWNTs at various temperatures were obtained by fitting the releasing curves to exponential decays. We then used Arrhenius fits of 1/t1/2(T)=A×exp(−EB/kBT) where A is a constant for extracting binding energy EB of DOX on the PEGylated Hipco and laser-ablation nanotubes.

Series [7] concerns MCF-7 cells. Put plainly: MTS cell viability assay, MCF-7 cells (SWNT-DOX formulations). The following applies: integrin αvβ3 negative. Format: cell-based.
Experimental: MCF-7 breast cancer cells and U87MG human glioblastoma cancer cells (both from American Type Culture Collection, ATCC) were cultured under standard conditions. Cell viability after various treatments was measured by the MTS assay with CellTiter96 kit (Promega).
The conditions of series [8]: mouse, in vivo, iv.
Experimental: Blood circulation was measured by drawing ˜15 μl blood from the tail vein of Raji tumor bearing SCID mice post injection of free DOX or SWNT-DOX. The blood samples were dissolved in a lysis buffer 1 (1% SDS, 1% Triton X-100, 40 mM Tris Acetate, 10 mM EDTA, 10 mM DTT) with brief sonication. Concentration of SWNTs in the blood was measured by a Raman method. […] In brief, DOX was extracted by incubating blood samples in 1 ml of 0.75 M HCl in isopropanol (IPA) at −20° C. overnight. After centrifuge at 24,000 g for 15 minutes, the supernatant was taken for fluorescence measurement using a fluorolog-3 fluorometer. A standard calibration curve with obtained by measuring fluorescence of extraction solutions with known DOX concentrations. DOX loaded on SWNTs can be completely pulled from nanotubes by the extraction solution with ˜100% recover of fluorescence (DOX fluorescence is quenched once loaded on nanotubes).
Blood circulation data were plotted as the blood DOX or SWNT levels (unit: % ID/g) against time p.i. […]
We injected free DOX or SWNT-DOX to Raji tumor bearing SCID mice by intravenous (i.v.) injection via tail veins. Blood was drawn at different time points post injection (p.i.) with DOX concentrations measured by fluorescence spectra.
In series [9] the test system is Raji B-cell lymphoma tumors. Put plainly: In vivo treatment of Raji tumor bearing SCID mice. On the procedure: Each SCID mouse was subcutaneously injected with 10 million Raji cells on its back. The treatment was initiated when the tumors reached sizes of ˜400 mm^3 (2-3 weeks after tumor inoculation). The tumor bearing mice were i.v. injected with different formulations of DOX including free DOX, SWNT-DOX and Doxil at 5 mg/kg of normalized DOX dose (or 10 mg/kg for SWNT-DOX) as well as related controls weekly. The tumor sizes were measured by a caliper three times a week and calculated as the volume=(tumor length)×(tumor width)^2/2. Relative tumor volumes were calculated as V/V0 (V0 was the tumor volume when the treatment was initiated). Mice were weighed with the relative body weights normalized to their initial weights.
Raji tumor bearing SCID mice were treated with different formulations of DOX at the weekly by i.v. injection. Plain SWNT and separated injections of plain SWNT plus free DOX were used as the controls. The tumor sizes were normalized to their initial size when the treatment was started (FIG. 26A-D).

The test system of series [10] is 4T1 tumors. The series can be described thus: In vivo treatment of 4T1 murine breast cancer model. Also on record: species or system Balb/c mice. The settings on record: PTX 5 mg/kg every 6 days. As for the experimental part: Female Balb/c mice with implanted 4T1 tumors were treated with the compositions shown in the graphs at the same PTX dose (5 mg/kg, every 6 days). […] No obvious side effects were seen. No mouse in the treatment group died, and no average drop in body weigh was seen (FIG. 19). The tumor growth curves were obtained with 5 mice in each group to get the average tumor volumes and standard deviations.
All animal experiments were performed under a protocol approved by Stanford's Administrative Panel on Laboratory Animal Care (APLAC). The 4T1 tumor models were generated by subcutaneous injection of 2×10^6 cells in 50 μl PBS into the right shoulder of female Balb/c mice. The mice were used for treatment when the tumor volume reached 50-100 mm^3 (˜6 days after tumor inoculation). […] The tumor sizes were measured by a caliper every the other day and calculated as the volume=(tumor length)×(tumor width)^2/2. Relative tumor volumes (FIG. 24) were calculated as V/V0 (V0 was the tumor volume when the treatment was initiated).
The mice were observed daily for clinical symptoms and the tumor volume was measured by a digital caliper every other day.

The test system of series [11] is Raji B-cells. The series can be described thus: MTS cell viability assay, Raji cells (NGO-PEG-Rituxan/DOX). Format: cell-based. The following applies: 2 uM and 10 uM DOX, vs free DOX, NGO-PEG/DOX and unconjugated mixture. On the procedure: Doxorubicin (DOX) loading onto NGO-PEG (and NGO-PEG-Rituxan) was done by simply mixing 0.5 mM of DOX with the NGO-PEG solution (˜0.2 mg/ml) at pH 8 overnight. Unbound excess DOX was removed by filtration through a 100 kDa filter and repeated rinse. The formed NGO-PEG/DOX complexes were re-suspended and stored at 4° C. Concentration of DOX loaded onto NGO-PEG was measured by the absorbance peak at 490 nm (characteristic of DOX, after subtracting the absorbance of NGO-PEG at that wavelength) with a molar extinction coefficient of 1.05×104 M·cm-1. Both Raji and CEM cells were incubated with free DOX, NGO-PEG/DOX, NGO-PEG/DOX+Rituxan (unconjugated) and NGO-PEG-Ri/DOX at DOX concentrations of 2 μM or 10 μM for 2 hours and washed by PBS twice before transferring into fresh cell medium. After another 48 h incubation, Cell viability was measured by the MTS assay with CellTiter96 kit (Promega).
For DOX loaded onto NGO-PEG-rituximab, we incubated the conjugates with Raji cells at 2 uM and 10 uM DOX concentrations.

For series [12], the system named is Raji B-cells. The series can be described thus: NIR photoluminescence imaging of cell binding. Format: cell-based. The settings on record: 4° C., Raji B-cells vs CEM T-cells. As for the experimental part:
We covalently conjugated a B-cell specific antibody, Rituxan® rituximab (anti-CD20) to NGO-PEG (NGO-PEG-rituximab) to selectively recognize and bind to B cell lymphoma cells. We incubated B-cells and T-cells in solutions of NGO-PEG-rituximab conjugates at 4° C. to allow the conjugates to interact with the cell surface but block internalization via endocytosis. The cells were then washed and imaged by detecting NIR photoluminescence from 1100 to 2200 nm using an InGaAs detector under 658 nm excitation (laser spot size ˜1 μm). […] This confirmed selective NGO-PEG-Ab binding to B-cells over T cells. […] Nevertheless, the fluorescence quantum yield (QY) in the NIR-IR region appeared low.
Thiolated Rituxan® was conjugated to the amine groups on NGO-PEG via a sulfo-SMCC linker (Pierce Inc.). […] All NIR fluorescence images were taken using an inverted NIR fluorescence microscope in confocal mode. […] The collected light went through a 900 nm long pass filter (Omega) and a 1100 nm long pass filter (ThorLabs) to block reflected excitation and reduce background fluorescence from the sample holder. […] Background fluorescence from the sample holder (˜160 counts) was subtracted to give relevant statistics about the effectiveness of NGO-PEG binding.

The mark [13] stands for this setting: HCT-116 (colon), 72 h drug incubation, read-out: IC50 values.

As for `CCc1c2c(nc3ccc(OC(=O)N4CCC(N5CCCCC5)CC4)cc13)-c1cc3c(c(=O)n1C2)COC(=O)[C@]3(O)CC` [CPT-11, irinotecan], the pIC50 in series [1] (HCT-116, 72 h, read-out: 50% growth inhibition concentration (IC50)) is about 5.00; in [1] (setting [13]) it was 4.96; in [2], under 4.70; in series [3] it was 5.52; in series [4], 5.22.
As for `CCc1c2c(nc3ccc(O)cc13)-c1cc3c(c(=O)n1C2)COC(=O)[C@]3(O)CC` [SN38, 7-ethyl-10-hydroxycamptothecin], the pIC50 in series [1] (setting [13]) is 7.82; in [2], 7.17; in series [3], 9.52; in [4], 8.52. In addition, the water solubility entry in [5] is recorded as “very insoluble in water”.
On to `COc1cccc2c1C(=O)c1c(O)c3c(c(O)c1C2=O)C[C@@](O)(C(=O)CO)C[C@@H]3O[C@H]1C[C@H](N)[C@H](O)[C@H](C)O1` [free DOX, doxorubicin], for which the “drop of absorbance on heating” value is listed as about 30% in series [6] (60° C.) and about 50% in [6] (80° C.). The “toxicity (concentration dependent survival)” value in series [7] was “higher toxicity than both PL-SWNT-DOX and PL-SWNT-RGD-DOX”. This compound also displayed a DOX circulation half-life in [8] of 12.6 min. For the same compound, the “total area under curve (AUC0-∞)” value in series [8] was 5300 ng·h/mL. Moreover, the mice death in series [9] (5 mg/kg) was 2 out of 10 and 2. The “tumor growth (folds of initial size)” value in series [9] (5 mg/kg DOX weekly i.v., in two weeks) is given as 2.90±0.19 folds. The compound also had a body weight loss in series [9] (5 mg/kg, within two weeks) of about 20%. Besides, the “mouse death and body weight drop” value in [9] (10 mg/kg) is reported as “all the tested mice died within 2 weeks”.
For `CC(=O)O[C@H]1C(=O)[C@@]2(C)[C@H]([C@H](OC(=O)c3ccccc3)[C@]3(O)C[C@H](OC(=O)[C@H](O)[C@@H](NC(=O)c4ccccc4)c4ccccc4)C(C)=C1C3(C)C)[C@]1(OC(C)=O)CO[C@@H]1C[C@@H]2O` [free PTX, paclitaxel], in [10], the lung metastasis entry is on record as “obvious lung metastasis was observed”.
As to NGO-PEG-Rituxan/DOX, the “DOX delivery and cell killing” value in [11] is “Much enhanced DOX delivery and cell killing”.
With NGO-PEG-rituximab, in series [12], the “cell surface binding (NIR photoluminescence)” value is “selectively on positive Raji B-cells surface and not on negative CEM T-cells”.

The record behind these values is patent publication US9233166B2, “Supramolecular functionalization of graphitic nanoparticles for drug delivery” (The Board of Trustees of the Leland Stanford Junior …, priority 2007, dated 2016).
